Results on 8 compounds are retold here after patent publication US8163939B2, “Ascorbic acid derivative or salt thereof, production method thereof, and cosmetic” (Seikwa Kasei Company, Limited, priority 2007, dated 2012).

The subject of data set [1] is Normal human dermal fibroblasts. As to the kind of experiment: Collagen production of human fibroblast 2 (100 μM or 500 μM; 2, 4 and 7 days). It counts as cell-based. The conditions noted are these: for Collagen production amount in comparison with the control group (% value when the control group is 100%): 100 μM or 500 μM (not stated which), average ± standard error, N=4. On the procedure: (§1) Normal human dermal fibroblasts were regulated with a 10% (v/v) fetal bovine serum (manufactured by Roshe Diagnostics)-containing D-MEM so as to give a cell density of 2.5×10^4 cells/well, then, pre-incubation for 24 hours was performed on a 96-well plate. After the medium was removed, a sample regulated with a 5% (v/v) fetal bovine serum-containing D-MEM to a concentration of 100 μM was added to each well, then, cultured for 48 hours under 37° C. and 5% CO2. After completion of culturing, the amount of free collagen was measured using Sircol collagen assay kit (manufactured by Biocolor). The measurement was carried out at N=4.
Free collagen was measured under the same conditions as in Test Example 5 excepting that the concentration of each sample was 100 μM or 500 μM and culturing was carried out for 2 days, 4 days and 7 days. The measurement was carried out at N=4, and the average and standard error, in four test examples, of values of the collagen production amount in comparison with the control group (% value when the control group is 100%) are shown in Tables 46 and 47.

Data set [2] relates to B16 melanoma 4A5 cell. As to the kind of experiment: Whitening test: theophylline-induced melanine production in B16 melanoma 4A5 cells.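 Further: grades: ± under 20% + 20-40% ++ 40-70% +++ 70-100% suppression.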 The following applies: sample at a concentration of 100 μM or less; theophylline-induced melanine production; 3 days culture; N=4. The data set is classed as cell-based, mouse. The method, then: As a test for a whitening effect, evaluation of the action of B16 melanoma 4A5 cell on theophylline-induced melanine production was carried out on an ascorbic acid derivative of the present invention, according to the following procedure. The same evaluation was carried out also on ascorbic acid, known compounds: ascorbic acid salts, and ascorbic acid derivatives, as comparison. The results are shown in Tables 38 to 40. • (1) B16 mouse melanoma 4A5 strain was sowed onto a 48-well plate at a cell density of 2.0×10^4 cells/well. • (2) Culturing was performed for 24 hours with Dulbecco's Modified Eagle's medium (manufactured by SIGMA. Hereinafter, abbreviated as D-MEM) containing 10% fetal bovine serum (manufactured by Roshe Diagnostics). Then, it was changed to 0.2 mM theophylline and a 10% fetal bovine serum-containing D-MEM which contains a sample of given concentration. • (3) After culturing for 3 days in the co-existence of a sample, the medium was removed using an aspirator. Then, after distilled water was added, cells were broken by an ultrasonic wave. • (4) Thereafter, the amount of protein was determined using BCA protein assay kit (manufactured by PIERCE), and the produced amount of melanine was measured by an alkali solubilizing method. To the cell-destructed solution was added sodium hydroxide so as to give a final concentration of 2N and the mixture was dissolved by heating (60° C., 15 minutes), then, the absorbance at 450 nm was measured using a micro plate reader. The melanine amount was calculated from a calibration curve made using synthetic melanine (SIGMA) as a standard. The melanine amount per unit protein was calculated by dividing the melanine amount by the protein amount. • (5) The melanine production suppressing rate was calculated according to the following formula. Melanine production suppressing rate (%)=[1−(A−B)/(C−B)]×100 [wherein, A represents the melanine amount per unit protein (g/g) in adding a sample, B represents the melanine amount per unit protein (g/g) in the normal group, and C represents the melanine amount per unit protein (g/g) in the control group.]
In the following Tables, the melanine production suppressing rate in measuring a sample at a concentration of 100 μM or less is expressed as described below. The measurement was carried out at N=4.

In data set [3] the test system is Normal human dermal fibroblasts. As to the kind of experiment: Collagen production of human fibroblast (Sircol collagen assay, 100 μM, 48 hours). The following applies: cultured 48 hours; for Collagen production promoting effect (collagen production amount, % of control group): N=4; for activity at 100 µM: Homo sapiens, Fibroblast, N=4, read-out: Collagen production promoting effect (collagen production amount, % of control group). It counts as cell-based. The method, then: as §1
The collagen production amount in measuring a sample at a concentration of 100 μM was compared with the control group, and the results thereof (% value when the control group is 100%) are shown in Tables 44 and 45 based on the following standard.

Data set [4] is described as follows: Stability Test 1: 2% aqueous solution, pH7, room temperature, 4 weeks (residual rate, odor, coloration). The data set is classed as physicochemical. On the procedure: Aqueous solutions (2%) of various test samples were adjusted to pH7 with a dilute sodium hydroxide aqueous solution, and charged into 50 mL screw tubes, and the tubes were sealed and stored at room temperature for 4 weeks. Thereafter, HPLC measurement were performed (using liquid chromatography manufactured by Tosoh Corp.) and the residual rate was obtained based on the peak area. The residual rate, odor(odor change) and degree of coloration were evaluated based on the following methods and standards, and the results are shown in Table 41.
◯: 80% or more and less than 90%
Δ: 60% or more and less than 80%
X: 20% or more and less than 60%
It was evaluated according to the following criterion by 10 panelists.
Based on the evaluation results, classification was conducted as shown below.
◯: total point of 10 panelists is 25 or more
Δ: total point of 10 panelists is 16 to 24
X: total point of 10 panelists is 15 or less
3: almost no change as compared with that immediately after preparation
2: coloration is observed as compared with that immediately after preparation
1: intense coloration is observed as compared with that immediately after preparation

The mark [5] stands for this setting: Table 47, culturing period 2 days.
[6] abbreviates: Table 47, culturing period 4 days.
Where [7] appears, read: Table 47, culturing period 7 days.
[8] abbreviates: Table 46, culturing period 2 days.
Where [9] appears, read: Table 46, culturing period 4 days.
The mark [10] stands for this setting: Table 46, culturing period 7 days.
The mark [11] stands for this setting: storage period 2 weeks, 10 panelists.
[12] abbreviates: storage period 4 weeks, 10 panelists.

For `CCCCCCCCOCC(O)COC1=C(OCC(O)CO)C(C(O)CO)OC1=O` (centres unmarked) [Example 84], the “Collagen production amount in comparison with the control group (% value when the control group is 100%)” value in data set [1] (setting [5]) was 135 ± 11%; in data set [1] (setting [6]) it was 154 ± 8%; in data set [1] (setting [7]), 201 ± 16%. Further, the “Whitening effect (melanine production suppressing rate)” value (from here on “Whitening effect”) in data set [2] is recorded as “+ (20 to 40%:+)”. In data set [3], the “Collagen production promoting effect (collagen production amount, % of control group)” value is given as “+ (100 to 200%:+)”.
`O=C1OC(C(O)CO)C(OCC(O)CO)=C1O` (centres unmarked) [Example 1, 3-O-glyceryl ascorbic acid]: the “Collagen production amount in comparison with the control group (% value when the control group is 100%)” value in data set [1] (setting [8]) is 182 ± 7%; in data set [1] (setting [9]) it was 209 ± 8%; in data set [1] (setting [10]) it was 219 ± 29%. Also, the Residual rate result in data set [4] (storage period 0) is “⊚ (⊚: 90% or more)”; in data set [4] (storage period 2 weeks), “◯ (◯: 80% or more and less than 90%)”; in data set [4] (storage period 4 weeks), “◯ (◯: 80% or more and less than 90%)”. Besides, the Coloration result is recorded as “◯ (◯: total point of 10 panelists is 25 or more)” in data set [4] (storage period 0, 10 panelists); “◯ (◯: total point of 10 panelists is 25 or more)” in data set [4] (setting [11]); “◯ (◯: total point of 10 panelists is 25 or more)” in data set [4] (setting [12]). Also, the Odor result in data set [4] (storage period 0, 10 panelists) is listed as “◯ (◯: total point of 10 panelists is 25 or more)”; in data set [4] (setting [11]), “◯ (◯: total point of 10 panelists is 25 or more)”; in data set [4] (setting [12]), “◯ (◯: total point of 10 panelists is 25 or more)”. For the same compound, the “Whitening effect” value in data set [2] is given as “+ (20 to 40%:+)”. In addition, the activity at 100 µM in data set [3] lay in the range of 100 to 200%.
Take `CCCCCCCCC(O)COC1=C(OCC(O)CO)[C@@H]([C@@H](O)CO)OC1=O` (some centres unmarked) [Example 29, 3-O-glyceryl-2-O-(2-hydroxydecyl) ascorbic acid]: the results for the “Collagen production amount in comparison with the control group (% value when the control group is 100%)” value in data set [1] (setting [5]), in data set [1] (setting [6]) and in data set [1] (setting [7]) were 97 ± 19%, 116 ± 7% and 138 ± 3%, respectively. In addition, the “Whitening effect” value in data set [2] is “+ (20 to 40%:+)”. Further, the activity at 100 µM in data set [3] lay in the range of 100 to 200%.
Consider `O=C1O[C@H]([C@@H](O)CO)C([O-])=C1OP(=O)([O-])[O-].O=C1O[C@H]([C@@H](O)CO)C([O-])=C1OP(=O)([O-])[O-].[Mg+2].[Mg+2].[Mg+2]` [magnesium ascorbyl phosphate, reference compound], for which, in data set [1] (100 μM or 500 μM, culturing 2, 4 and 7 days), the “collagen production promoting effect over time (in words)” value is “lowers over time”. Further, the entries for the “Collagen production amount in comparison with the control group (% value when the control group is 100%)” value in data set [1] (setting [8]), in data set [1] (setting [9]) and in data set [1] (setting [10]) were 276 ± 9%, 207 ± 24% and 191 ± 2%, respectively. Further, the “Whitening effect” value in data set [2] is listed as “± (<20%:±)”. Besides, the “Collagen production promoting effect (collagen production amount, % of control group)” value in data set [3] is given as “+ (100 to 200%:+)”.
With `CCCCOCC(O)COC1=C(OCC)C(C(O)CO)OC1=O` (centres unmarked) [Example 97], the figures for the “Collagen production amount in comparison with the control group (% value when the control group is 100%)” value in data set [1] (setting [5]), in data set [1] (setting [6]) and in data set [1] (setting [7]) were 93 ± 4%, 111 ± 4% and 139 ± 15%, respectively. The “Whitening effect” value in data set [2] is “+ (20 to 40%:+)”. The “Collagen production promoting effect (collagen production amount, % of control group)” value in data set [3] is on record as “+ (100 to 200%:+)”.
As to `CCOCC(O)COC1=C(OCC)C(=O)O[C@@H]1[C@@H](O)CO` (some centres unmarked) [Example 66], the “Whitening effect” value in data set [2] is listed as “+ (20 to 40%:+)”. Moreover, the “Collagen production promoting effect (collagen production amount, % of control group)” value in data set [3] is on record as “+ (100 to 200%:+)”.
For the compound `CCCCCCCCC(O)COC1=C(O)C(=O)O[C@@H]1[C@@H](O)CO` (some centres unmarked) [Example 46], the “Collagen production amount in comparison with the control group (% value when the control group is 100%)” value was determined as 152 ± 6% in data set [1] (setting [5]), 123 ± 11% in data set [1] (setting [6]) and 254 ± 10% in data set [1] (setting [7]). Further, the “Whitening effect” value in data set [2] was “++ (40 to 70%:++)”. For the same compound, the “Collagen production promoting effect (collagen production amount, % of control group)” value in data set [3] was “+ (100 to 200%:+)”.
In the case of `CCCCOCC(O)COC1=C(O)[C@@H]([C@@H](O)CO)OC1=O` (some centres unmarked) [Example 48], the “Whitening effect” value in data set [2] is given as “+++ (70 to 100%:+++)”. Further, the “Collagen production promoting effect (collagen production amount, % of control group)” value in data set [3] is given as “+ (100 to 200%:+)”.
